Laboratory results taken from patent publication US10717716B2, “1,3,4-oxadiazole derivative compounds as histone deacetylase 6 inhibitor, and the pharmaceutical composition comprising the same” (Chong Kun Dang Pharmaceutical Corp., priority 2015, dated 2020).

Biological target: T1, human recombinant HDAC6 (Homo sapiens, UniProt Q9UBN7)
T1 construct: purchased Calbiochem 382180
T1 sequence (Q9UBN7 1-1215): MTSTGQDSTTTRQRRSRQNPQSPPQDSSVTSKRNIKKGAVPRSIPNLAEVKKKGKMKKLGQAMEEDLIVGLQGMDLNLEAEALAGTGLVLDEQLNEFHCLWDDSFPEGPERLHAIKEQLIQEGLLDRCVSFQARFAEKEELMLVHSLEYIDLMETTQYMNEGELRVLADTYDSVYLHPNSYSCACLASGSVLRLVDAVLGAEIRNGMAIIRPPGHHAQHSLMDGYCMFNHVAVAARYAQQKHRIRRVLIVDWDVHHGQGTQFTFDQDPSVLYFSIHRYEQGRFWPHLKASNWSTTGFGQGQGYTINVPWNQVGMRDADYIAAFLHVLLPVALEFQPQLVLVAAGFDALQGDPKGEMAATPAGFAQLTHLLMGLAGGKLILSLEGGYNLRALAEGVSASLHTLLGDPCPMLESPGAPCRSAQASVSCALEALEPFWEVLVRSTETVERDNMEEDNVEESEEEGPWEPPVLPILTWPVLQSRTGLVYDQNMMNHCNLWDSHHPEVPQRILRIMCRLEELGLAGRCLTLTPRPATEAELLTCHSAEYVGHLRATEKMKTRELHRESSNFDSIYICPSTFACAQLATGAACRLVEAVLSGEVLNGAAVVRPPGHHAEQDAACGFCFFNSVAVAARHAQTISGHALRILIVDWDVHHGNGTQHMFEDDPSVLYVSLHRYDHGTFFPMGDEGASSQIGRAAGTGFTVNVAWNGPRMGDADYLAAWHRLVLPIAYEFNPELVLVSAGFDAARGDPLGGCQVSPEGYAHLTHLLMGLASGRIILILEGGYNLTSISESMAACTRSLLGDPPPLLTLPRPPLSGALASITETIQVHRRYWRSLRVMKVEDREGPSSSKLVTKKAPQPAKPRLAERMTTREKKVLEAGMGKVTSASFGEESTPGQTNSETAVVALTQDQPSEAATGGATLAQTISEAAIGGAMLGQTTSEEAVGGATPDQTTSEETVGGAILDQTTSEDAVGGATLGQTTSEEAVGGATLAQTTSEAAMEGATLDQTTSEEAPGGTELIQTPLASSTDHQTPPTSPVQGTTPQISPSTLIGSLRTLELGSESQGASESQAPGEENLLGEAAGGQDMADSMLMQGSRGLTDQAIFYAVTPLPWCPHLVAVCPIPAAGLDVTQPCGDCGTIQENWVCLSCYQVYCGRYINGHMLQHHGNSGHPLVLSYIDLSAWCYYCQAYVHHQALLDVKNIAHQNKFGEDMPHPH
Assay: HDAC6 enzyme activity inhibition assay (HDAC Fluorimetric Drug Discovery Kit)
Format: biochemical
Conditions: for HDAC6 selectivity (fold): HDAC6 over HDAC1; for IC50: human recombinant HDAC6, same protocol as HDAC1, read-out: HDAC6
Method in brief: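 Fluorimetric deacetylase assay: 5-fold serial compound dilutions, 0.3 μg recombinant human enzyme (HDAC1 or HDAC6, same protocol), 10 μM Fluor de Lys-SIRT1 substrate, 60 min at 30 °C. Signal developed 30 min, measured at 360/460 nm; IC50 values derived.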

Structure (SMILES) | HDAC6 selectivity (fold) | IC50 [µM]
O=C(NCCN1CCC[C@@H]1C(F)(F)F)N(Cc1ccc(-c2nnc(C(F)F)o2)cc1F)c1ccccc1 [Compound 21987, (R)-1-(4-(5-(difluoromethyl)-1,3,4-oxadiazol-2-yl)-2-fluorobenzyl)-1-phenyl-3-(2-(2-(trifluoromethyl)pyrrolidin-1-yl)ethyl)urea] | 47 | 0.213
O=C(NCCN1CCC[C@H]1C(F)(F)F)N(Cc1ccc(-c2nnc(C(F)F)o2)cc1F)c1ccccc1 [Compound 21988, (S)-1-(4-(5-(difluoromethyl)-1,3,4-oxadiazol-2-yl)-2-fluorobenzyl)-1-phenyl-3-(2-(2-(trifluoromethyl)pyrrolidin-1-yl)ethyl)urea] | 33 | 0.301
CC1CCN(CCNC(=O)N(Cc2ccc(-c3nnc(C(F)F)o3)cc2F)c2ccccc2)CC1 [Compound 21989, 1-(4-(5-(Difluoromethyl)-1,3,4-oxadiazol-2-yl)-2-fluorobenzyl)-3-(2-(4-methylpiperidin-1-yl)ethyl)-1-phenylurea] | 80 | 0.124
O=C(NCCN1CCC(F)CC1)N(Cc1ccc(-c2nnc(C(F)F)o2)cc1F)c1ccccc1 [Compound 21990, 1-(4-(5-(Difluoromethyl)-1,3,4-oxadiazol-2-yl)-2-fluorobenzyl)-3-(2-(4-fluoropiperidin-1-yl)ethyl)-1-phenylurea] | 100 | 0.1
O=C1CCN(CCNC(=O)N(Cc2ccc(-c3nnc(C(F)F)o3)cc2F)c2ccccc2)CC1 [Compound 21991, 1-(4-(5-(Difluoromethyl)-1,3,4-oxadiazol-2-yl)-2-fluorobenzyl)-3-(2-(4-oxopiperidin-1-yl)ethyl)-1-phenylurea] | 120 | 0.083
C[C@@H]1CN(CCNC(=O)N(Cc2ccc(-c3nnc(C(F)F)o3)cc2F)c2ccccc2)C[C@H](C)N1 [Compound 21992, 1-(4-(5-(Difluoromethyl)-1,3,4-oxadiazol-2-yl)-2-fluorobenzyl)-3-(2-((3S,5R)-3,5-dimethylpiperazin-1-yl)ethyl)-1-phenylurea] | 133 | 0.075
CN1CCN(CCNC(=O)N(Cc2ccc(-c3nnc(C(F)F)o3)cc2F)c2ccccc2)CC1 [Compound 21993, 1-(4-(5-(Difluoromethyl)-1,3,4-oxadiazol-2-yl)-2-fluorobenzyl)-3-(2-(4-methylpiperazin-1-yl)ethyl)-1-phenylurea] | 117 | 0.086
CCN1CCN(CCNC(=O)N(Cc2ccc(-c3nnc(C(F)F)o3)cc2F)c2ccccc2)CC1 [Compound 21994, 1-(4-(5-(Difluoromethyl)-1,3,4-oxadiazol-2-yl)-2-fluorobenzyl)-3-(2-(4-ethylpiperazin-1-yl)ethyl)-1-phenylurea] | 81 | 0.123
CC(=O)N1CCN(CCNC(=O)N(Cc2ccc(-c3nnc(C(F)F)o3)cc2F)c2ccccc2)CC1 [Compound 21995, 3-(2-(4-Acetylpiperazin-1-yl)ethyl)-1-(4-(5-(difluoromethyl)-1,3,4-oxadiazol-2-yl)-2-fluorobenzyl)-1-phenylurea] | 111 | 0.09
O=C(NCCN1CCN(CCO)CC1)N(Cc1ccc(-c2nnc(C(F)F)o2)cc1F)c1ccccc1 [Compound 21996, 1-(4-(5-(Difluoromethyl)-1,3,4-oxadiazol-2-yl)-2-fluorobenzyl)-3-(2-(4-(2-hydroxyethyl)piperazin-1-yl)ethyl)-1-phenylurea] | 108 | 0.092
COCCN1CCN(CCNC(=O)N(Cc2ccc(-c3nnc(C(F)F)o3)cc2F)c2ccccc2)CC1 [Compound 21997, 1-(4-(5-(Difluoromethyl)-1,3,4-oxadiazol-2-yl)-2-fluorobenzyl)-3-(2-(4-(2-methoxyethyl)piperazin-1-yl)ethyl)-1-phenylurea] | 109 | 0.091
O=C(NCCN1CCN(CCCO)CC1)N(Cc1ccc(-c2nnc(C(F)F)o2)cc1F)c1ccccc1 [Compound 21998, 1-(4-(5-(Difluoromethyl)-1,3,4-oxadiazol-2-yl)-2-fluorobenzyl)-3-(2-(4-(3-hydroxypropyl)piperazin-1-yl)ethyl)-1-phenylurea] | 153 | 0.066
CC(=O)N1CCCN(CCNC(=O)N(Cc2ccc(-c3nnc(C(F)F)o3)cc2F)c2ccccc2)CC1 [Compound 21999, 3-(2-(4-Acetyl-1,4-diazepan-1-yl)ethyl)-1-(4-(5-(difluoromethyl)-1,3,4-oxadiazol-2-yl)-2-fluorobenzyl)-1-phenylurea] | 85 | 0.117
O=C(NCCN1CCCN(Cc2ccccc2)CC1)N(Cc1ccc(-c2nnc(C(F)F)o2)cc1F)c1ccccc1 [Compound 22000, 3-(2-(4-Benzyl-1,4-diazepan-1-yl)ethyl)-1-(4-(5-(difluoromethyl)-1,3,4-oxadiazol-2-yl)-2-fluorobenzyl)-1-phenylurea] | 61 | 0.165
O=C(C1CC1)N1CCN(CCNC(=O)N(Cc2ccc(-c3nnc(C(F)F)o3)cc2F)c2ccccc2)CC1 [Compound 22001, 3-(2-(4-(Cyclopropanecarbonyl)piperazin-1-yl)ethyl)-1-(4-(5-(difluoromethyl)-1,3,4-oxadiazol-2-yl)-2-fluorobenzyl)-1-phenylurea] | 116 | 0.087
CN(C)CCCN1CCN(CCNC(=O)N(Cc2ccc(-c3nnc(C(F)F)o3)cc2F)c2ccccc2)CC1 [Compound 22002, 1-(4-(5-(Difluoromethyl)-1,3,4-oxadiazol-2-yl)-2-fluorobenzyl)-3-(2-(4-(3-(dimethylamino)propyl)piperazin-1-yl)ethyl)-1-phenylurea] | 85 | 0.118
O=C(NCCN1CCC(N2CCOCC2)CC1)N(Cc1ccc(-c2nnc(C(F)F)o2)cc1F)c1ccccc1 [Compound 22003, 1-(4-(5-(Difluoromethyl)-1,3,4-oxadiazol-2-yl)-2-fluorobenzyl)-3-(2-(4-morpholinopiperidin-1-yl)ethyl)-1-phenylurea] | 99 | 0.101
O=C(NCCN1CCC(Cc2ccccc2)CC1)N(Cc1ccc(-c2nnc(C(F)F)o2)cc1F)c1ccccc1 [Compound 22004, 3-(2-(4-Benzylpiperidin-1-yl)ethyl)-1-(4-(5-(difluoromethyl)-1,3,4-oxadiazol-2-yl)-2-fluorobenzyl)-1-phenylurea] | 24 | 0.412
Cc1noc(C2CCN(CCNC(=O)N(Cc3ccc(-c4nnc(C(F)F)o4)cc3F)c3ccccc3)CC2)n1 [Compound 22005, 1-(4-(5-(Difluoromethyl)-1,3,4-oxadiazol-2-yl)-2-fluorobenzyl)-3-(2-(4-(3-methyl-1,2,4-oxadiazol-5-yl)piperidin-1-yl)ethyl)-1-phenylurea] | 79 | 0.126
CCN(CCNC(=O)N(Cc1ccc(-c2nnc(C(F)F)o2)cc1F)c1ccccc1)Cc1ccccc1 [Compound 22006, 3-(2-(Benzyl(ethyl)amino)ethyl)-1-(4-(5-(difluoromethyl)-1,3,4-oxadiazol-2-yl)-2-fluorobenzyl)-1-phenylurea] | 37 | 0.27
O=C(NCCN1CCN(c2ccccc2)CC1)N(Cc1ccc(-c2nnc(C(F)F)o2)cc1F)c1ccccc1 [Compound 22007, 1-(4-(5-(Difluoromethyl)-1,3,4-oxadiazol-2-yl)-2-fluorobenzyl)-1-phenyl-3-(2-(4-phenylpiperazin-1-yl)ethyl)urea] | 40 | 0.249
O=C(NCCN1CCN(c2ccccn2)CC1)N(Cc1ccc(-c2nnc(C(F)F)o2)cc1F)c1ccccc1 [Compound 22008, 1-(4-(5-(Difluoromethyl)-1,3,4-oxadiazol-2-yl)-2-fluorobenzyl)-1-phenyl-3-(2-(4-(pyridin-2-yl)piperazin-1-yl)ethyl)urea] | 73 | 0.138
